In PMC10493609 (Frontiers in Immunology, 2023) one finds Kd data, which are given here for one substance.

A word on the Kd: it is the equilibrium constant for the complex coming apart.

The target in the assay is T1, Galectin-3 (Gal-3) (Homo sapiens, UniProt P17931).
T1 construct: gene LGALS3; Human recombinant Gal-3
In words: SPR kinetic analysis (Biacore). It counts as binding.

T1 sequence (P17931 2-250): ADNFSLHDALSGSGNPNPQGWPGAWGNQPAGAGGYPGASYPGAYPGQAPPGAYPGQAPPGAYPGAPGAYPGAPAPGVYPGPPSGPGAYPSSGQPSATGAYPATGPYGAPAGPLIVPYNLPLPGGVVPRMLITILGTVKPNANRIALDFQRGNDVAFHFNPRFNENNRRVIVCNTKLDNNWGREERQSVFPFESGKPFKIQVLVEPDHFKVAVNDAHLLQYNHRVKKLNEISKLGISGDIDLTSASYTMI

The substance GB1211 yielded a Kd of 23.3 nM.
